{"source": "PubChem BioAssay (NCI)", "test_in_all_cases": "NCI tumour cell line growth inhibition, 48 h", "key": {"[1]": {"system": "RXF-631 renal"}, "[2]": {"system": "M19-MEL melanoma"}, "[3]": {"system": "DLD-1 colon"}, "[4]": {"system": "DMS 273 small cell lung"}, "[5]": {"system": "SNB-78 CNS"}, "[6]": {"system": "XF 498 CNS"}, "[7]": {"system": "DMS 114 small cell lung"}, "[8]": {"system": "SN12K1 renal"}, "[9]": {"system": "P388 leukemia"}, "[10]": {"system": "P388/ADR leukemia"}}, "note": "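A five-concentration, 48-hour dose response in 96-well plates underlies each endpoint, interpolated linearly between surrounding concentrations. GI50 marks 50% less growth. TGI is the concentration that stops growth completely.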", "data": [{"smiles": "CC1=C(O)C(=O)C2C(=O)C1C1Cc3ccccc3C21", "note": "(stereo not drawn)", "values": [{"measurement": "TGI", "setting": "[1]", "value": "> 100", "unit": "µM"}, {"measurement": "TGI", "setting": "[2]", "value": "> 100", "unit": "µM"}, {"measurement": "TGI", "setting": "[3]", "value": "> 100", "unit": "µM"}, {"measurement": "TGI", "setting": "[4]", "value": "> 100", "unit": "µM"}, {"measurement": "TGI", "setting": "[5]", "value": "> 100", "unit": "µM"}, {"measurement": "TGI", "setting": "[6]", "value": "> 100", "unit": "µM"}]}, {"smiles": "COc1ccc(-c2cc(=O)c3cc(OC)ccc3[nH]2)cc1", "values": [{"measurement": "TGI", "setting": "[2]", "value": "> 100", "unit": "µM"}, {"measurement": "TGI", "setting": "[7]", "value": "> 100", "unit": "µM"}, {"measurement": "TGI", "setting": "[3]", "value": "> 100", "unit": "µM"}, {"measurement": "TGI", "setting": "[5]", "value": "> 100", "unit": "µM"}]}, {"smiles": "CSc1nc(NC2OC(COC(C)=O)C(OC(C)=O)C(OC(C)=O)C2OC(C)=O)c2c(n1)OCC2=O", "note": "(stereo not drawn)", "values": [{"measurement": "TGI", "setting": "[1]", "value": "> 100", "unit": "µM"}, {"measurement": "TGI", "setting": "[2]", "value": "> 100", "unit": "µM"}, {"measurement": "TGI", "setting": "[7]", "value": "> 100", "unit": "µM"}, {"measurement": "TGI", "setting": "[3]", "value": "> 100", "unit": "µM"}, {"measurement": "TGI", "setting": "[5]", "value": "> 100", "unit": "µM"}]}, {"smiles": "CC(C)N=C(N)NC#N", "values": [{"measurement": "TGI", "setting": "[2]", "value": "> 100", "unit": "µM"}, {"measurement": "TGI", "setting": "[7]", "value": "> 100", "unit": "µM"}, {"measurement": "TGI", "setting": "[3]", "value": "> 100", "unit": "µM"}, {"measurement": "TGI", "setting": "[5]", "value": "> 100", "unit": "µM"}, {"measurement": "TGI", "setting": "[6]", "value": "> 100", "unit": "µM"}]}, {"smiles": "Cc1cc(/C=C/c2cc[n+](C)c3ccccc23)c(O)c2ncccc12", "values": [{"measurement": "TGI", "setting": "[2]", "value": 8.52, "unit": "µM"}, {"measurement": "TGI", "setting": "[7]", "value": 1.8, "unit": "µM"}, {"measurement": "TGI", "setting": "[3]", "value": 22.5, "unit": "µM"}, {"measurement": "TGI", "setting": "[4]", "value": 10.4, "unit": "µM"}, {"measurement": "TGI", "setting": "[5]", "value": 27.1, "unit": "µM"}]}, {"smiles": "COC1C(O)C(n2ncc3c(SC)nc(SC)nc32)OC1C(O)CO", "note": "(stereo not drawn)", "values": [{"measurement": "TGI", "setting": "[8]", "value": "> 67.4", "unit": "µM"}, {"measurement": "TGI", "setting": "[2]", "value": "> 100", "unit": "µM"}, {"measurement": "TGI", "setting": "[9]", "value": "> 100", "unit": "µM"}, {"measurement": "TGI", "setting": "[7]", "value": "> 100", "unit": "µM"}, {"measurement": "TGI", "setting": "[3]", "value": "> 100", "unit": "µM"}, {"measurement": "TGI", "setting": "[4]", "value": "> 100", "unit": "µM"}, {"measurement": "TGI", "setting": "[5]", "value": "> 100", "unit": "µM"}, {"measurement": "TGI", "setting": "[6]", "value": "> 100", "unit": "µM"}, {"measurement": "TGI", "setting": "[10]", "value": "> 100", "unit": "µM"}]}, {"smiles": "Cc1c(N2CCN(C)CC2)nc2ccc(Cl)cc2c1-c1ccccc1", "values": [{"measurement": "TGI", "setting": "[7]", "value": 31, "unit": "µM"}, {"measurement": "TGI", "setting": "[4]", "value": 32.1, "unit": "µM"}, {"measurement": "TGI", "setting": "[5]", "value": 39.8, "unit": "µM"}]}, {"smiles": "CC(C)NC(=O)OCc1c(CO)c2c(n1C)-c1ccccc1CC2", "values": [{"measurement": "TGI", "setting": "[8]", "value": 35.1, "unit": "µM"}, {"measurement": "TGI", "setting": "[2]", "value": 59.3, "unit": "µM"}, {"measurement": "TGI", "setting": "[9]", "value": 32.7, "unit": "µM"}, {"measurement": "TGI", "setting": "[7]", "value": 40.7, "unit": "µM"}, {"measurement": "TGI", "setting": "[3]", "value": 46.4, "unit": "µM"}, {"measurement": "TGI", "setting": "[4]", "value": 62.4, "unit": "µM"}, {"measurement": "TGI", "setting": "[5]", "value": 86.7, "unit": "µM"}, {"measurement": "TGI", "setting": "[6]", "value": 31.3, "unit": "µM"}, {"measurement": "TGI", "setting": "[10]", "value": 53.9, "unit": "µM"}]}, {"smiles": "C/C(CC(=O)Nc1ccc(C)c(C)c1)=N\\NC(N)=O", "values": [{"measurement": "TGI", "setting": "[2]", "value": "> 100", "unit": "µM"}, {"measurement": "TGI", "setting": "[7]", "value": "> 100", "unit": "µM"}, {"measurement": "TGI", "setting": "[3]", "value": "> 100", "unit": "µM"}, {"measurement": "TGI", "setting": "[5]", "value": "> 100", "unit": "µM"}]}, {"smiles": "COc1ccccc1-c1cc(=O)c2cc3c(cc2[nH]1)OCO3", "values": [{"measurement": "TGI", "setting": "[2]", "value": "> 100", "unit": "µM"}, {"measurement": "GI50", "setting": "[7]", "value": 25, "unit": "µM"}, {"measurement": "TGI", "setting": "[7]", "value": "> 100", "unit": "µM"}, {"measurement": "TGI", "setting": "[3]", "value": "> 100", "unit": "µM"}, {"measurement": "TGI", "setting": "[4]", "value": "> 100", "unit": "µM"}, {"measurement": "TGI", "setting": "[6]", "value": 75.5, "unit": "µM"}]}, {"smiles": "O=c1c(Br)cc2nc3ccccc3sc-2c1Br", "values": [{"measurement": "TGI", "setting": "[1]", "value": "> 100", "unit": "µM"}, {"measurement": "TGI", "setting": "[2]", "value": 32.4, "unit": "µM"}, {"measurement": "TGI", "setting": "[7]", "value": 34.6, "unit": "µM"}, {"measurement": "TGI", "setting": "[3]", "value": "> 100", "unit": "µM"}, {"measurement": "TGI", "setting": "[4]", "value": "> 100", "unit": "µM"}, {"measurement": "TGI", "setting": "[5]", "value": "> 100", "unit": "µM"}, {"measurement": "TGI", "setting": "[6]", "value": 61.8, "unit": "µM"}]}]}
